{"source": "patent US12708602B2", "about": "“Fermentation extracts, cosmetic composition and manufacturing method of fermentation extracts” (bioMOA Medical, Inc., priority 2023, dated 2026)", "conditions": "dissolved in purified water (FIG. 3)", "data": [{"compound": "N[C@@H](CCC(=O)N[C@@H](CS)C(=O)NCC(=O)O)C(=O)O", "note": "[glutathione powder, glutathione]", "values": [{"measurement": "precipitation", "value": "precipitation occurred from the first day"}]}]}
